The nature of data set [1]: Lymph node draining / biodistribution of TMR-labelled antigen after s.c. administration. Format: in vivo, C57BL/6 mice. The settings on record: naive mice, after one day. On the procedure: Tetramethylrhodamine (TMR, excitation/emission ˜540/560 nm) modified MOG peptide (CSSGWYRSPFSRVVHL-TMR, MOG-TMR SEQ ID NO: 829) was prepared by reacting TMR-NHS and MOG peptide according to the manufacturer's instruction. MOG-TMR was purified using HPLC and reacted with DOPE-MAL in DMF to produce DOPE-Mal-MOG-TMR (MOG-TMR). Next, the DMF solution was diluted with water, freeze-dried, dissolved in DMSO, and added to previously made HDL to produce HDL-MOG-TMR. Conjugation of MOG-TMR to DOPE-MAL and incorporation of MOG-TMR in HDL were measured by HPLC/MS, as indicated above. For the lymph node draining studies, naive female C57BL/6 mice or EAE-induced mice were administered s.c. at tail base with HDL-MOG-TMR or free MOG-TMR containing antigen peptide (100 μg per mouse) in 100 μl volume. After 24, 96, and 196 hr, animals were euthanized, organs were harvested, and TMR signal was measured with an IVIS optical imaging system (Caliper Life Sciences). Inguinal lymph nodes and spinal cord were cut into small pieces and passed through a 70-μm cell strainer, washed two times, and stained with the indicated antibodies, followed by flow cytometry analysis.

A short description of data set [2]: Antigen / drug loading efficiency in HDL nanodiscs (HPLC/MS). The class given is physicochemical. The conditions noted are these: for loading efficiency in HDL: antigen / antigen-lipid conjugate loaded into HDL nanodiscs, HPLC/MS; for drug encapsulate efficiencies: drug in HDL nanodiscs, HPLC-MS. How it is done:
(§1) HDL nanodisc was prepared as previously described. Briefly, DMPC was dissolved in chloroform, which was evaporated with nitrogen flow and under vacuum for at least 1 h. The resulting lipid film was hydrated in 10 mM sodium phosphate buffer and sonicated in a bath sonicator for 10 min. ApoA1 mimetic peptide 22A dissolved in endotoxin free water was added to the above mixture (22A:DMPC=1:2 weight ratio) to obtain nanodiscs. To load MOG antigen peptide in nanodiscs, each antigen peptide was reacted with 4-(4-maleimidophenyl)-butyric DOPE for 3 h in dimethylformamide (DMF), which was removed by freeze-drying after dilution 10× with endotoxin-free water. The lipid-peptide conjugates were dissolved in DMSO and added to pre-formed sHDL and incubated for 30 min at room temperature. Unreacted MOG peptides were removed by using Zeba Spin Desalting columns (Pierce) following the manufacturer's instructions. The conjugation efficiency of MOG peptide was determined by LC-MS and gel permeation chromatography (GPC). EAE was induced in female C57BL/6 mice by inoculation with 100 μg of MOG in complete Freund's adjuvant on day 0 following the administration of pertussis toxin. Mice were then injected subcutaneously at tail base for therapeutic study with sHDL-MOG, MOG or PBS on indicated days. Mice were weighed and scored daily based on the following guideline: 0, no sign of disease; 1, loss of tone in the tail; 2, hind limb paresis; 3, hind limb paralysis; 4, tetraplegia; and 5, moribund.
To produce HDL nanodiscs carrying immunomodulatory drugs, 22A, and DMPC were dissolved in acetic acid and freeze-dried overnight as shown above. Drugs (FTY720, ITE, TSA, or SAHA) were dissolved in chloroform and added to lyophilized powder, followed by drying overnight in vacuum oven. Dried samples were rehydrated by 10 mM phosphate buffer. After three heat-cooling cycles, HDL-loaded with drugs were performed. The concentration of each drug was measured by HPLC-MS as shown for FTY720, ITE, TSA, or SAHA (FIGS. 14-17, respectively). Free drugs were used to generate standard curves. […] Samples were also analyzed by dynamic light scattering (DLS) for the particle sizes. […] We also analyzed HDL-FTY720 samples using gel permeation chromatography (GPC) (FIG. 19).
We synthesized HDL nanodiscs loaded with other CD4+ T cell epitopes for validation of our approach. We have synthesized phospholipids conjugated to either Ea chain 52-68 peptide (EA, ASFEAQGALANIAVDKA (SEQ ID NO: 831)), ovalbumin-II 323-339 peptide (OVA-II, ISQAVHAAHAEINEAGR (SEQ ID NO: 832)), and type-II collagen 250-270 peptide (CIA, […] (SEQ ID NO: 833)), each modified with CSS-peptide at N-terminus. Antigen-lipid conjugates were loaded into HDL nanodiscs as described above and analyzed by HPLC/MS and DLS. EA, OVA-II, and CIA peptides were conjugated to MPB-phospholipids with ˜95% conjugation efficiency (FIGS. 22-25). Antigen-lipid conjugates were efficiently loaded into HDL nanodiscs with ˜90%, ˜84%, and ˜78% loading efficiency for EA, OVA-II, and CIA peptides, respectively (FIGS. 22-25).

In data set [3] the test system is bone marrow-derived dendritic cells (BMDCs). Description: Cellular uptake by BMDCs (confocal microscopy). The class given is cell-based, C57BL/6 mice. The settings on record: FITC-labelled antigen. How it is done: To obtain bone marrow-derived dendritic cells (BMDCs), bone marrow was flushed from femurs and tibia bone of 5 to 6 weeks old C57BL/6 mice. Bone marrow cells were plated at 1×10^6 cells per dish in RPMI 1640 supplemented with 10% FBS, 55 μM β-mercaptoethanol, 5 ng/ml of GM-CSF, and 100 U/ml penicillin (BMDC media). On day three and five, one half of the culture media was replaced with fresh media. After 8 days, BMDCs were harvested and plated at 1×10^6 cells per well in 12-well plates.
(§2) Internalization of fluorescent HDL-MOG by BMDCs or microglia were visualized using confocal microscopy. BMDCs or microglia were seeded at 1×10^6 cells on 35 mm Petri dishes (MatTek) and incubated with the mixture of free CSS-MOG-K(FITC), or sHDL-CSS-MOG-K(FITC). Cells were then washed three times with PBS, fixed with 4% paraformaldehyde, washed, and permeabilized with 0.1% Triton-X solution. Actin filaments were stained with AlexaFluor 647-Phalloidin, MHC-II was stained with MHC-II-Texas red, and the nuclei were stained with DAPI. The samples were imaged using a 63× oil-immersion lens on a Nikon A-I spectral confocal microscope.

Another data set concerns microglia. Kind of data set: Cellular uptake by microglia (confocal microscopy). Format: cell-based, C57BL6/J mice. The conditions noted are these: FITC-labelled antigen. How it is done:
Mixed glial cell cultures were harvested from the cerebral cortex of newborn (P0-2) C57BL6/J mice as described previously. Cortices and brain stem were separated, and the blood vessels and meninges were carefully isolated. Then, the tissues were digested by enzymatic dissociation (0.05% trypsin-EDTA and […] DNase I), washed two times with 1% BSA in PBS. Cells were resuspended in DMEM (10% FBS, 1% penicillin/streptomycin, 0.5 mM 2-mercaptoethanol). Mixed glial cells were cultured in poly-D-lysine-coated flasks and grown at 37° C. and 5% CO2. After 10 days, microglia cells were isolated from the underlying astrocytic layer by shaking of the flask. The cell culture contained more than 95% microglial (CD11 b+, CD45+) cells as analyzed by flow cytometry.
as §2

Data set [4] concerns experimental autoimmune encephalomyelitis (EAE). Description: Experimental autoimmune encephalomyelitis (EAE) mouse model, pathological score. Format: in vivo, C57BL/6 mice. How it is done: as §1
EAE-induced mice were administered s.c. with PBS or HDL-MOG on days 15, 22, and 29, and a subset of animals also received i.p. administration of […] to deplete Tregs at the specified time points (FIG. 13).
We examined the therapeutic potential of HDL-FTY720 in the EAE model. EAE was initiated as described above. Briefly, EAE was induced in mice as indicated above. Mice received i.p. administration of PBS or HDL-FTY720 (1 mg/kg) on days 14, 21, and 28. Mice were scored daily and assigned EAE scores as indicated above.

Bounds are passed on as bounds.

With CSSGWYRSPFSRVVHL-TMR [MOG-TMR], in data set [1], the “TMR signal in inguinal dLNs” value is listed as “minimal TMR signal”.

Turning to “ISQAVHAAHAEINEAGR [OVA-II, ovalbumin-II 323-339 peptide, modified with CSS-peptide at N-terminus]”, the “loading efficiency in HDL” value in data set [2] was ~84%.

On to `O=C(CCCCCCC(=O)Nc1ccccc1)NO` [SAHA, Suberoylanilide hydroxamic acid], for which the drug encapsulate efficiencies in data set [2] is listed as ~100%.

As for “ASFEAQGALANIAVDKA [Ea chain 52-68 peptide, modified with CSS-peptide at N-terminus]”, the “loading efficiency in HDL” value in data set [2] is listed as ~90%.

As to “GPKGQTGKPGIAGFKGEQGPK [CIA, type-II collagen 250-270 peptide, modified with CSS-peptide at N-terminus]”, the “loading efficiency in HDL” value in data set [2] is ~78%.

With CSS-MOG-K(FITC) [MOG-FITC], the “internalization by BMDCs” value in data set [3] is “minimal signal”. Besides, the internalization by microglia result in the data set with microglia is recorded as “minimal signal”.

With `COC(=O)c1csc(C(=O)c2c[nH]c3ccccc23)n1` [ITE, 2-(1′H-indole-3′-carbonyl)-thiazole-4-carboxylic acid methyl ester], the drug encapsulate efficiencies in data set [2] was ~95%.

For the molecule `CCCCCCCCc1ccc(CCC(N)(CO)CO)cc1` [FTY720, Fingolimod], the EAE score in data set [4] (FTY720 0.3 mg/Kg oral daily for 30 days starting day 30) was 3; in data set [4] (FTY720 1 mg/Kg oral daily for 30 days starting day 30) it was 1; in data set [4] (treatment started day 15: HDL-MOG s.c. days 15, 22, 29, followed 85 days, FTY720 oral daily for 30 days) it was “above 2”. The “day by which mice had to be euthanized after treatment stopped” value was ≤ 55 days in data set [4] (FTY720 oral daily for 30 days starting day 15) and ≤ 90 days in data set [4] (FTY720 oral daily for 30 days starting day 30).

Regarding `CC(/C=C/C(=O)NO)=C\[C@@H](C)C(=O)c1ccc(N(C)C)cc1` [TSA, Trichostatin A], the drug encapsulate efficiencies in data set [2] is ~80%.

These data come from US20230001010A1, “COMPOSITIONS AND METHODS FOR TREATING AUTOIMMUNE DISORDERS” (The Regents of the University of Michigan, priority 2019, published 2023).
